Key:
[1] = system: 54,000 (membrane transport protein); assay: Photoaffinity labeling of bile acid-binding proteins in hepatocytes in the presence of competitor; set-up: species or system rat
From the text: (§1) The molecules of these physiologically relevant binding proteins for bile acids were identified and characterized by the method of photoaffinity labeling. The principle of this method consists in binding a photoreactive radioactively labeled bile acid derivative to the physiological binding protein analogously to the natural bile acids. By irradiation with UV light, highly reactive chemical intermediates such as carbenes, nitrenes or radicals are generated in this derivative which, owing to their high reactivity, immediately react with the binding proteins by addition to double bonds or insertion in single bonds and bind covalently to these. By means of this covalent linkage of the radioactive bile acid derivative with the binding protein, the binding proteins are then also radioactively labeled and can be identified by a separation of the various proteins of a liver cell, for example by electrophoresis, and their molecular weight determined.
(§2) If such a photoaffinity labeling is carried out in the presence of a substance X' which also binds to the bile acid-binding proteins, then X' will compete with the radioactive bile acid derivative for binding to the bile acid-binding proteins; the radioactive labeling of the corresponding binding proteins will thus be lower in the presence of X'.
(§3) 3.6×10^6 freshly isolated hepatocytes from rat liver (about 3 mg of protein) in 1.5 ml of buffer I (118 mM NaCl, 4.74 mM KCl, 0.59 mM KH2 PO4, 0.59 mM Na2 HPO4 ×2 H2 O, 1.185 mM MgCl2 ×6 H2 O, 24.87 mM NaHCO3, 1.25 mM CaCl2, 5.5 mM D-glucose, pH 7.35, buffer aerated with carbogen (95% O2 /5% CO2) for 1 h) were incubated at 37° C. […] in the dark with 1.25 μM (25 μCi) of (7,7-azo-3α-12α-dihydroxy-5β[3-^3 H]cholan-24-oyl)-2-aminoethanesulfonic acid in the absence or in the presence of 250 μM "Example 3" and then irradiated at […] with 16 RPR 3500 Å-lamps for 5 min in a Rayonet RPR-100 photoreactor. The cell suspension was then diluted with 10 ml of ice-cold buffer I and the cells sedimented by centrifuging at 1000×g for 3 minutes. The cells were resuspended again in 10 ml of buffer I and again sedimented by centrifugation. The precipitate was taken up in 600 μl of tris/HCl buffer (pH 6.8)/2% sodium dodecylsulfate (SDS)/5% 2-mercaptoethanol/10% glycerol/0.001% Bromophenol blue, heated to 90° C. for 5 min and centrifuged at 40,000×g for 20 min. The clear supernatant containing the solubilized proteins was used subsequently. In each case 100 μl (500 μg of protein) were applied to discontinuous SDS slab gels (200×170×2.7 mm, total acrylamide concentration 12%) and the proteins were separated by electrophoresis at a voltage of 50 V. After the electrophoresis, the gels were fixed in 12.5% strength trichloroacetic acid solution and stained using 0.08% Serva blue R 250 solution in 25% ethanol/8% acetic acid/67% water. After destaining, the gels were equilibrated in 1M sodium salicylate solution in 70% methanol for 20 min and then dried. The distribution of the radioactively labeled proteins was determined by the fluorographic method by placing the dried gels on Kodak-X-Omat AR X-ray films and exposing at -80° C. for 14 d. The blackened films were measured by densitometry. The decrease in the labeling of the various bile acid-binding proteins owing to the presence of "Example 3" during the photoaffinity labeling is given in % relative to the control.

[2] = system: 33,000 (binding protein in mitochondria); assay: as above; set-up: species or system rat
From the text: as §1, §2, §3

[3] = system: 36,000 (transport protein in the cytoplasm); assay: as above; set-up: species or system rat
From the text: as §1, §2, §3

[4] = system: 43,000 (cytoskeletal protein); assay: as above; set-up: species or system rat
From the text: as §1, §2, §3

[5] = system: 48,000 (membrane transport protein); assay: as above; set-up: species or system rat
From the text: as §1, §2, §3

67,000 (albumin) = target: T1, 67,000 (albumin) (Rattus norvegicus, UniProt P02770); assay: as above; settings: decrease in labeling relative to control
T1 construct: freshly isolated hepatocytes from rat liver; endogenous in cells; host or cells: freshly isolated rat hepatocytes
From the text: as §1
as §2, with “X'. […]” for “X'.”

[6] = system: freshly isolated hepatocytes; assay: Metabolism by freshly isolated hepatocytes; assay type: in vitro ADME, rat; set-up: Distribution of the radioactivity: Metabolite 1 Rf = 0.32 / Distribution of the radioactivity: Metabolite 3 Rf = 0.21 (not identified): concentration or dose not given beside the values
Experimental: Freshly isolated hepatocytes (1.8×10^6) in 750 μl of buffer I were incubated at 37° C. with 5.5 μCi of "Example 5". After 10, 20, 30, 40 and 60 min, 100 μl of the cell suspension were removed in each case, diluted with 10 ml of ice-cold buffer I and centrifuged at 1000×g for 5 min. The cell precipitate was treated twice with 100 μl of chloroform/methanol solution (1/1, v/v) each time to extract the bile acid. The organic extracts were evaporated in a stream of N2, and the residues were each taken up in 20 μl of dioxane and applied to HPTLC thin layer plates. After developing the chromatogram using n-butanol/acetic acid/water (9:1:2, v/v/v) as the eluent, the plate was dried, sprayed with 1M sodium salicylate solution in methanol and, after drying, placed on a Kodak-X-Omat AR X-ray film. After exposure at -80° C. for 1 week, the film was developed and the distribution of the radioactivity was determined by densitometry. The distribution of the radioactivity in the individual metabolites is given in %.

liver cell proteins = assay: Alkylation of liver cell proteins in freshly isolated hepatocytes; assay type: cell-based, rat
Experimental: Freshly isolated hepatocytes (2×10^6) in 2 ml of buffer I were incubated at 37° C. with 30 μCi of "Example 5". After 10, 30, 40 and 60 min, in each case 500 μl of cell suspension (500 μg of protein) were removed and diluted with 10 ml of ice-cold buffer I. After centrifuging at 1000×g for 3 minutes, the precipitate was resuspended in 10 ml of buffer I and the suspension was centrifuged again. The cell precipitates were each dissolved in 100 μl of 62.5 mM tris/HCl buffer (pH 6.8)/2% SDS/5% 2-mercaptoethanol/10% glycerol/0.001% Bromophenol blue, centrifuged at 48,000×g for 30 min and the clear supernatants were applied to discontinuous SDS slab gels (200×170×2.7 mm). After the electrophoretic separation, the gels were fixed and stained. To determine the distribution of the radioactivity, the individual gel tracks were divided into 2 mm sections, the proteins were digested with Biolute S by incubation with 0.5 ml, and after addition of 5 ml of Quickszint 501 scintillator, the samples were measured in a liquid scintillation counter.

T1 sequence (P02770 25-608): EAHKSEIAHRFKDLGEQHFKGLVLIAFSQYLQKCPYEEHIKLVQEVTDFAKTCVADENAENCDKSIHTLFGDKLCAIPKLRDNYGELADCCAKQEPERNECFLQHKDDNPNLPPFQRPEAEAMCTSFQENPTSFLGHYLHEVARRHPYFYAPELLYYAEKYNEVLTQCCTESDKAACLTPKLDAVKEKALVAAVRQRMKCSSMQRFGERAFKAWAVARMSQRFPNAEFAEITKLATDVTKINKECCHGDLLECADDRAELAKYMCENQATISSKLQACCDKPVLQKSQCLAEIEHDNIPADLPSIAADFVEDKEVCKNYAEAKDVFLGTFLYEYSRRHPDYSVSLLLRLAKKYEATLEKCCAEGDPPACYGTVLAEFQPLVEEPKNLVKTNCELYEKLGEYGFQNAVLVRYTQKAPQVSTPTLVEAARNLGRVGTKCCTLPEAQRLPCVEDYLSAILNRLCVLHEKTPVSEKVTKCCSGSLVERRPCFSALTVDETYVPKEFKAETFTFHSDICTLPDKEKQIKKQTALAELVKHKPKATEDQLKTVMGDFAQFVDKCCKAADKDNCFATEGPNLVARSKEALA

C[C@H](CCC(=O)NCCS(=O)(=O)O)[C@H]1CC[C@H]2[C@@H]3CC[C@@H]4C[C@H](OC(=O)CCCc5ccc(N(CCCl)CCCl)cc5)CC[C@]4(C)[C@H]3CC(=O)[C@]12C [Example 3]
% Inhibition of bile acid-binding proteins by 250 μM "Example 3" [1]: 89.6% | % Inhibition of bile acid-binding proteins by 250 μM "Example 3" [2]: 93.2% | % Inhibition of bile acid-binding proteins by 250 μM "Example 3" [3]: 98.1% | % Inhibition of bile acid-binding proteins by 250 μM "Example 3" [4]: 88.1% | % Inhibition of bile acid-binding proteins by 250 μM "Example 3" [5]: 88.8% | % Inhibition of bile acid-binding proteins by 250 μM "Example 3" (67,000 (albumin)): 90.5%

[3H]C1(O)C[C@H]2[C@@H](CC[C@@H]3C[C@H](OC(=O)CCCc4ccc(N(CCCl)CCCl)cc4)CC[C@@]32C)[C@@H]2CC[C@H]([C@H](C)CCC(=O)NCCS(=O)(=O)O)[C@]21C (stereo partly shown) [Example 5]
Distribution of the radioactivity: "Example 5" Rf = 0.49 ([6]; incubation 10 min): 31.34% | Distribution of the radioactivity: Metabolite 1 Rf = 0.32 ([6]; incubation 10 min): 33.79% | Distribution of the radioactivity: Metabolite 2 Rf = 0.36 ([6]; incubation 10 min): 38.03% | Distribution of the radioactivity: Metabolite 3 Rf = 0.21 (not identified) ([6]; incubation 10 min): 5.62% | Distribution of the radioactivity: "Example 5" Rf = 0.49 ([6]; incubation 20 min): 26.51% | Distribution of the radioactivity: Metabolite 1 Rf = 0.32 ([6]; incubation 20 min): 29.49% | Distribution of the radioactivity: Metabolite 2 Rf = 0.36 ([6]; incubation 20 min): 32.25% | Distribution of the radioactivity: Metabolite 3 Rf = 0.21 (not identified) ([6]; incubation 20 min): 11.74% | Distribution of the radioactivity: "Example 5" Rf = 0.49 ([6]; incubation 30 min): 23.76% | Distribution of the radioactivity: Metabolite 1 Rf = 0.32 ([6]; incubation 30 min): 29.88% | Distribution of the radioactivity: Metabolite 2 Rf = 0.36 ([6]; incubation 30 min): 34.18% | Distribution of the radioactivity: Metabolite 3 Rf = 0.21 (not identified) ([6]; incubation 30 min): 12.16% | Distribution of the radioactivity: "Example 5" Rf = 0.49 ([6]; incubation 40 min): 13.78% | Distribution of the radioactivity: Metabolite 1 Rf = 0.32 ([6]; incubation 40 min): 33.52% | Distribution of the radioactivity: Metabolite 2 Rf = 0.36 ([6]; incubation 40 min): 40.93% | Distribution of the radioactivity: Metabolite 3 Rf = 0.21 (not identified) ([6]; incubation 40 min): 11.75% | Distribution of the radioactivity: "Example 5" Rf = 0.49 ([6]; incubation 60 min): 11.00% | Distribution of the radioactivity: Metabolite 1 Rf = 0.32 ([6]; incubation 60 min): 33.7% | Distribution of the radioactivity: Metabolite 2 Rf = 0.36 ([6]; incubation 60 min): 45.7% | Distribution of the radioactivity: Metabolite 3 Rf = 0.21 (not identified) ([6]; incubation 60 min): 10.3% | Absorption into the cell interior by the liver cells ([6]; result in words): is absorbed into the cell interior by the liver cells | Hydrolytic cleavage into free chlorambucil and bile acid ([6]; result in words): rapidly cleaved hydrolytically | Radioactive labeling of liver cell proteins (liver cell proteins; in membranes, cytoplasm and cell organelles, result in words): leads to a radioactive labeling of liver cell proteins | Radioactivity in labeled liver proteins (liver cell proteins; incubation 0 min): < 30 cpm | Radioactivity in labeled liver proteins (liver cell proteins; incubation 10 min, 48 kDa): 408 cpm | Radioactivity in labeled liver proteins (liver cell proteins; incubation 10 min, 67 kDa): 102 cpm | Radioactivity in labeled liver proteins (liver cell proteins; incubation 30 min, 28 kDa): 2190 cpm | Radioactivity in labeled liver proteins (liver cell proteins; incubation 30 min, 33 kDa): 1116 cpm | Radioactivity in labeled liver proteins (liver cell proteins; incubation 30 min, 42 kDa): 1711 cpm | Radioactivity in labeled liver proteins (liver cell proteins; incubation 30 min, 48 kDa): 1375 cpm | Radioactivity in labeled liver proteins (liver cell proteins; incubation 30 min, 54 kDa): 1811 cpm | Radioactivity in labeled liver proteins (liver cell proteins; incubation 30 min, 122 kDa): 1064 cpm | Radioactivity in labeled liver proteins (liver cell proteins; incubation 40 min, 28 kDa): 2682 cpm | Radioactivity in labeled liver proteins (liver cell proteins; incubation 40 min, 33 kDa): 1474 cpm | Radioactivity in labeled liver proteins (liver cell proteins; incubation 40 min, 42 kDa): 2650 cpm | Radioactivity in labeled liver proteins (liver cell proteins; incubation 40 min, 48 kDa): 2420 cpm | Radioactivity in labeled liver proteins (liver cell proteins; incubation 40 min, 54 kDa): 2385 cpm | Radioactivity in labeled liver proteins (liver cell proteins; incubation 40 min, 122 kDa): 1549 cpm | Radioactivity in labeled liver proteins (liver cell proteins; incubation 60 min, 28 kDa): 2163 cpm | Radioactivity in labeled liver proteins (liver cell proteins; incubation 60 min, 42 kDa): 1725 cpm | Radioactivity in labeled liver proteins (liver cell proteins; incubation 60 min, 48 kDa): 2074 cpm | Radioactivity in labeled liver proteins (liver cell proteins; incubation 60 min, 54 kDa): 1949 cpm | Radioactivity in labeled liver proteins (liver cell proteins; incubation 60 min, 122 kDa): 997 cpm

From patent US5462933A, “Modified bile acid conjugates, and their use as pharmaceuticals” (Hoechst Aktiengesellschaft, priority 1989, dated 1995)
